Several values for one entry are separate records, joined by “and”; a condition that tells them apart may be missing. Identical values can stand only once. Like-named read-outs stand apart in the source and are kept apart here. Each block holds one compound with its values, some of them ahead of it.
How the values were obtained:
[1] = Interactions with water molecules, thermogravimetric analysis (TGA); assay type: physicochemical; conditions: TGA 30-200° C. at 10° C./min, 1 mM in water with 1% DMSO
Procedure: TGA was performed on a Perkin Elmer TGA 800 using Pyris software. A temperature scan from 30° C. to 200° C. at a rate of 10° C./min was performed. The isomers were analyzed at a concentration of 1 mM in water (containing 1% DMSO).

[2] = Octanol:water partition coefficient (Log P), HPLC
Procedure: The octanol:water partition coefficients of the trans and cis isomers of 3-(2-bromo-3,4-dihydroxy-phenyl)-N-(3,4,5-trihydroxy-benzyl)-thioacrylamide were determined.
A solution of 10 mM of the trans isomer in DMSO was prepared and diluted 10-fold in water. A solution of the cis isomer was obtained by exposing the trans isomer solution (5 mL) to 125 lux light at 4° C. for 9 hours resulting in a solution containing more than 90% of the cis isomer. Partitioning in octanol:water was performed as follows: 20 μL of each solution were added to 80 μL of water (saturated by octanol, containing 1 mM of ascorbic acid) and 100 μl of octanol (saturated by water). The obtained solutions were stirred for 1 min and left for incubation at RT for 24 hours. Then, each phase was analyzed by HPLC. The concentration (C) of each isomer was determined using a calibration curve, based on the injection volume of each phase and a response factor of 1 (previously measured).
For all said analyses a volume of 13 μL was injected to the HPLC.

[3] = Stability in biorelevant fluids (FaSSGF, FaSSIF), HPLC; conditions: for Percent of isomer in FaSSGF / Percent of isomer in FaSSIF: 250 μM
Procedure: The stability of the trans and cis isomers of 3-(2-bromo-3,4-dihydroxy-phenyl)-N-(3,4,5-trihydroxy-benzyl)-thioacrylamide in biorelevant fluids was assessed, including Fasted State Simulated Intestinal Fluid (FaSSIF) and Fasted State Simulated Gastric Fluid (FaSSGF).
A solution containing the cis isomer of 3-(2-bromo-3,4-dihydroxy-phenyl)-N-(3,4,5-trihydroxy-benzyl)-thioacrylamide was prepared by exposing a 5 mL solution of the 100% trans isomer at a concentration of 1 mM to 125 lux light for 9 hours at 4° C.
FaSSIF and FaSSGF solutions were prepared according to the manufacturer's instructions.
The cis and trans isomers of 3-(2-bromo-3,4-dihydroxy-phenyl)-N-(3,4,5-trihydroxy-benzyl)-thioacrylamide were diluted in either FaSSIF or FaSSGF solutions to a final concentration of 250 μM. Samples were taken at time 0 and after 4 hours. Samples were frozen in liquid nitrogen, and stored frozen until analysis.

[4] = Exposure of trans isomer to artificial daylight, 1H NMR analysis; assay type: physicochemical; conditions: 10% d6-DMSO in buffer pH 7.4, artificial daylight 5 hr
[5] = Exposure of trans isomer in HPCD solution to room lighting, UV analysis; assay type: physicochemical; conditions: 0.5 mg/mL in 0.025% phosphoric acid (diluted from HPCD solution), clear glass vials, room lighting several days
[6] = assay type: physicochemical; conditions: 1 mM, 125 lux light
Excerpt: An additional assessment of the stability of the trans isomer upon exposure to artificial daylight was made.

[7] = simulated intestinal fluid, 0 h
[8] = simulated intestinal fluid, 0.5 h

Structure (SMILES): Oc1cc(CNC(=S)C=Cc2ccc(O)c(O)c2Br)cc(O)c1O (single isomer, unassigned; isomer 3) [cis isomer]
- Maximum evaporation rate (bound water) [1]: 12%/min
- Maximum evaporation rate (free water) [1]: 37 %/min
- Temperature of mid evaporation (free water) [1]: 58 °C
- Maximum evaporation rate (free water) ([1]; listed as Cis isomer): 37%/min
- logP at 24 h [2]: -0.18
- reduction of concentration in FaSSGF ([3]; simulated gastric fluid, 0 to 4 h): ~16%
- Percent of isomer in FaSSGF ([3]; simulated gastric fluid, 0 h): 89.05%
- Percent of isomer in FaSSGF ([3]; simulated gastric fluid, 0.5 h): 89.07%
- Percent of isomer in FaSSGF ([3]; simulated gastric fluid, 4 h): 73.47%
- Percent of isomer in FaSSIF [3, 7]: 83.49%
- Percent of isomer in FaSSIF [3, 8]: 72.21%
- Percent of isomer in FaSSIF ([3]; simulated intestinal fluid, 4 h, listed as Cis): 54.87%
- Percent of isomer in FaSSIF ([3]; simulated intestinal fluid, 4 h, listed as cis): ~55%

- Maximum evaporation rate (bound water) [1]: 12%/min
- Maximum evaporation rate (free water) [1]: 23 %/min
- Temperature of mid evaporation (free water) [1]: 87 °C
- Maximum evaporation rate (free water) ([1]; listed as Trans isomer): 23%/min
- logP at 24 h (physchem): 0.86
- Percent of isomer in FaSSGF ([3]; simulated gastric fluid, 0 h): 100%
- Percent of isomer in FaSSGF ([3]; simulated gastric fluid, 0.5 h): 100%
- Percent of isomer in FaSSGF ([3]; simulated gastric fluid, 4 h): 100%
- stability in FaSSGF ([3]; simulated gastric fluid, up to 4 h): completely stable
- reduction of concentration in FaSSIF ([3]; simulated intestinal fluid, 0 to 4 h): ~7%
- Percent of isomer in FaSSIF [3, 7]: 98.15%
- Percent of isomer in FaSSIF [3, 8]: 96.25%
- Percent of isomer in FaSSIF ([3]; simulated intestinal fluid, 4 h): 90.98%
- conversion of the trans isomer to the cis isomer (1H-NMR) [4]: significant conversion
- % cis ([6]; 0 hours): 0%
- % trans ([6]; 0 hours): 100%
- % trans ([6]; 1 hour): 50.5%
- % cis ([6]; 2 hours): 64% and 63.7%
- % trans ([6]; 2 hours): 36.3%
- % cis ([6]; 4 hours): 87.7%
- % trans ([6]; 4 hours): 12.3%
- % trans ([6]; 5 hours): 8.5%
- % cis ([6]; 6 hours): 92.1%
- % trans ([6]; 6 hours): 7.9%
Structure (SMILES): Oc1cc(CNC(=S)/C=C/c2ccc(O)c(O)c2Br)cc(O)c1O [trans isomer]
- conversion of the trans isomer to the cis isomer [5]: conversion of the trans isomer to the cis isomer

— patent US20240425452A1
